PubChem BioAssay AID1919002 (Molecular Pharmacology Branch, DTP, NCI, 2023)

Test system: 743489-274-T-PDC complex spheroid growth
Assay: Anticancer human tumor 743489-274-T-PDC patient-derived renal cell carcinoma cell line growth inhibition [AhR]
Settings: for IC50: curve of first compound; for viability, T/C: stronger effect = lower value
Method in brief: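 Spheroids combined tumor cells with HUVEC endothelial cells and human MSCs as stroma. AhR antagonists were paired with standard or investigational drugs, each dosed in half-log steps down from near clinical Cmax, or from 10 microM where Cmax was unknown.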

[1] = second compound 0.1 µM, first compound 0.0316 µM
[2] = second compound 0.1 µM, first compound 0.1 µM
[3] = second compound 0.1 µM, first compound 0.316 µM
[4] = second compound 0.1 µM, first compound 1 µM
[5] = second compound 0.316 µM, first compound 0.0316 µM
[6] = second compound 0.316 µM, first compound 0.1 µM
[7] = second compound 0.316 µM, first compound 0.316 µM
[8] = second compound 0.316 µM, first compound 1 µM
[9] = second compound 1 µM, first compound 0.0316 µM
[10] = second compound 1 µM, first compound 0.1 µM
[11] = second compound 1 µM, first compound 0.316 µM
[12] = second compound 1 µM, first compound 1 µM
[13] = second compound 3.16 µM, first compound 0.0316 µM
[14] = second compound 3.16 µM, first compound 0.1 µM
[15] = second compound 3.16 µM, first compound 0.316 µM
[16] = second compound 3.16 µM, first compound 1 µM
[17] = second compound 10 µM, first compound 0.0316 µM
[18] = second compound 10 µM, first compound 0.1 µM
[19] = second compound 10 µM, first compound 0.316 µM
[20] = second compound 10 µM, first compound 1 µM
[21] = second compound 0.1 µM, first compound 3.16 µM
[22] = second compound 0.1 µM, first compound 10 µM
[23] = second compound 0.316 µM, first compound 3.16 µM
[24] = second compound 0.316 µM, first compound 10 µM
[25] = second compound 1 µM, first compound 3.16 µM
[26] = second compound 1 µM, first compound 10 µM
[27] = second compound 3.16 µM, first compound 3.16 µM
[28] = second compound 3.16 µM, first compound 10 µM
[29] = second compound 10 µM, first compound 3.16 µM
[30] = second compound 10 µM, first compound 10 µM
[31] = second compound 0.1 µM, first compound 0.00949 µM
[32] = second compound 0.1 µM, first compound 0.03 µM
[33] = second compound 0.1 µM, first compound 0.0949 µM
[34] = second compound 0.1 µM, first compound 0.3 µM
[35] = second compound 0.316 µM, first compound 0.00949 µM
[36] = second compound 0.316 µM, first compound 0.03 µM
[37] = second compound 0.316 µM, first compound 0.0949 µM
[38] = second compound 0.316 µM, first compound 0.3 µM
[39] = second compound 1 µM, first compound 0.00949 µM
[40] = second compound 1 µM, first compound 0.03 µM
[41] = second compound 1 µM, first compound 0.0949 µM
[42] = second compound 1 µM, first compound 0.3 µM
[43] = second compound 3.16 µM, first compound 0.00949 µM
[44] = second compound 3.16 µM, first compound 0.03 µM
[45] = second compound 3.16 µM, first compound 0.0949 µM
[46] = second compound 3.16 µM, first compound 0.3 µM
[47] = second compound 10 µM, first compound 0.00949 µM
[48] = second compound 10 µM, first compound 0.03 µM
[49] = second compound 10 µM, first compound 0.0949 µM
[50] = second compound 10 µM, first compound 0.3 µM
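Note: spheroids exposed to agents for 7 days before readout.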
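Throughout, for viability, T/C: 100% = DMSO vehicle control wells.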

CC1COCCN1c1cc(-c2ccnn2C)c2ccnc(-c3ccn[nH]3)c2n1 (stereo not given) + Cc1cncc(-c2nc(NCCc3c[nH]c4ccccc34)c3ncn(C(C)C)c3n2)c1
IC50 (second compound 0.1 µM): > 1 µM
IC50 (second compound 0.316 µM): > 1 µM
IC50 (second compound 1 µM): > 1 µM
IC50 (second compound 3.16 µM): > 1 µM
IC50 (second compound 10 µM): > 1 µM
viability, T/C (second compound 0.1 µM, first compound 0.00316 µM): 106%
viability, T/C (second compound 0.1 µM, first compound 0.01 µM): 106%
viability, T/C [1]: 113%
viability, T/C [2]: 105%
viability, T/C [3]: 100%
viability, T/C [4]: 84.5%
viability, T/C (second compound 0.316 µM, first compound 0.00316 µM): 99.7%
viability, T/C (second compound 0.316 µM, first compound 0.01 µM): 107%
viability, T/C [5]: 109%
viability, T/C [6]: 105%
viability, T/C [7]: 95.4%
viability, T/C [8]: 80.3%
viability, T/C (second compound 1 µM, first compound 0.00316 µM): 108%
viability, T/C (second compound 1 µM, first compound 0.01 µM): 104%
viability, T/C [9]: 116%
viability, T/C [10]: 99.8%
viability, T/C [11]: 102%
viability, T/C [12]: 85%
viability, T/C (second compound 3.16 µM, first compound 0.00316 µM): 120%
viability, T/C (second compound 3.16 µM, first compound 0.01 µM): 126%
viability, T/C [13]: 122%
viability, T/C [14]: 113%
viability, T/C [15]: 99.4%
viability, T/C [16]: 89.1%
viability, T/C (second compound 10 µM, first compound 0.00316 µM): 116%
viability, T/C (second compound 10 µM, first compound 0.01 µM): 148%
viability, T/C [17]: 143%
viability, T/C [18]: 142%
viability, T/C [19]: 124%
viability, T/C [20]: 109%

CC1COCCN1c1cc(C2(S(C)(=N)=O)CC2)nc(-c2ccnc3[nH]ccc23)n1 (stereo not given) + Cc1cncc(-c2nc(NCCc3c[nH]c4ccccc34)c3ncn(C(C)C)c3n2)c1
IC50 (second compound 0.1 µM): > 10 µM
IC50 (second compound 0.316 µM): > 10 µM
IC50 (second compound 1 µM): > 10 µM
IC50 (second compound 3.16 µM): > 10 µM
IC50 (second compound 10 µM): > 10 µM
viability, T/C [1]: 104%
viability, T/C [2]: 93.8%
viability, T/C [3]: 89.3%
viability, T/C [4]: 86%
viability, T/C [21]: 85.9%
viability, T/C [22]: 85.4%
viability, T/C [5]: 87.9%
viability, T/C [6]: 89.8%
viability, T/C [7]: 85.1%
viability, T/C [8]: 86.4%
viability, T/C [23]: 90%
viability, T/C [24]: 84.3%
viability, T/C [9]: 88.7%
viability, T/C [10]: 91.7%
viability, T/C [11]: 97.3%
viability, T/C [12]: 98.1%
viability, T/C [25]: 84.1%
viability, T/C [26]: 83.7%
viability, T/C [13]: 109%
viability, T/C [14]: 108%
viability, T/C [15]: 105%
viability, T/C [16]: 90.9%
viability, T/C [27]: 91.4%
viability, T/C [28]: 85.7%
viability, T/C [17]: 97.3%
viability, T/C [18]: 117%
viability, T/C [19]: 92.5%
viability, T/C [20]: 107%
viability, T/C [29]: 105%
viability, T/C [30]: 99.1%

COc1ccc([C@@H](O)c2cc(-c3ncnc4cc(N5CCOCC5)ccc34)c(F)cc2Cl)nn1 + Cc1cncc(-c2nc(NCCc3c[nH]c4ccccc34)c3ncn(C(C)C)c3n2)c1
IC50 (second compound 0.1 µM): 3.86 µM
IC50 (second compound 0.316 µM): 3.13 µM
IC50 (second compound 1 µM): 2.82 µM
IC50 (second compound 3.16 µM): 4.55 µM
IC50 (second compound 10 µM): > 10 µM
viability, T/C [1]: 95.3%
viability, T/C [2]: 98.9%
viability, T/C [3]: 90.3%
viability, T/C [4]: 98.1%
viability, T/C [21]: 52.9%
viability, T/C [22]: 36.1%
viability, T/C [5]: 94.2%
viability, T/C [6]: 94.6%
viability, T/C [7]: 88.4%
viability, T/C [8]: 82.8%
viability, T/C [23]: 49.4%
viability, T/C [24]: 29.4%
viability, T/C [9]: 99.5%
viability, T/C [10]: 95%
viability, T/C [11]: 93.2%
viability, T/C [12]: 84.7%
viability, T/C [25]: 46%
viability, T/C [26]: 35.5%
viability, T/C [13]: 112%
viability, T/C [14]: 118%
viability, T/C [15]: 102%
viability, T/C [16]: 87.5%
viability, T/C [27]: 53.8%
viability, T/C [28]: 39.4%
viability, T/C [17]: 114%
viability, T/C [18]: 119%
viability, T/C [19]: 102%
viability, T/C [20]: 99.3%
viability, T/C [29]: 65.5%
viability, T/C [30]: 59.5%

Nc1ncn(C2CC(O)C(CO)S2)c(=O)n1 (stereo not given) + Cc1cncc(-c2nc(NCCc3c[nH]c4ccccc34)c3ncn(C(C)C)c3n2)c1
IC50 (second compound 0.1 µM): > 0.3 µM
IC50 (second compound 0.316 µM): > 0.3 µM
IC50 (second compound 1 µM): > 0.3 µM
IC50 (second compound 3.16 µM): > 0.3 µM
IC50 (second compound 10 µM): > 0.3 µM
viability, T/C (second compound 0.1 µM, first compound 0.000949 µM): 107%
viability, T/C (second compound 0.1 µM, first compound 0.003 µM): 105%
viability, T/C [31]: 104%
viability, T/C [32]: 95.8%
viability, T/C [33]: 96.5%
viability, T/C [34]: 93.1%
viability, T/C (second compound 0.316 µM, first compound 0.000949 µM): 96.6%
viability, T/C (second compound 0.316 µM, first compound 0.003 µM): 99.8%
viability, T/C [35]: 104%
viability, T/C [36]: 98.3%
viability, T/C [37]: 84.7%
viability, T/C [38]: 101%
viability, T/C (second compound 1 µM, first compound 0.000949 µM): 108%
viability, T/C (second compound 1 µM, first compound 0.003 µM): 100%
viability, T/C [39]: 106%
viability, T/C [40]: 106%
viability, T/C [41]: 98.8%
viability, T/C [42]: 103%
viability, T/C (second compound 3.16 µM, first compound 0.000949 µM): 114%
viability, T/C (second compound 3.16 µM, first compound 0.003 µM): 106%
viability, T/C [43]: 119%
viability, T/C [44]: 118%
viability, T/C [45]: 109%
viability, T/C [46]: 96.2%
viability, T/C (second compound 10 µM, first compound 0.000949 µM): 138%
viability, T/C (second compound 10 µM, first compound 0.003 µM): 115%
viability, T/C [47]: 117%
viability, T/C [48]: 124%
viability, T/C [49]: 112%
viability, T/C [50]: 125%

O=C(C=Cn1cnc(-c2cc(C(F)(F)F)cc(C(F)(F)F)c2)n1)NNc1cnccn1 + Cc1cncc(-c2nc(NCCc3c[nH]c4ccccc34)c3ncn(C(C)C)c3n2)c1
IC50 (second compound 0.1 µM): > 3 µM
IC50 (second compound 0.316 µM): > 3 µM
IC50 (second compound 1 µM): > 3 µM
IC50 (second compound 3.16 µM): > 3 µM
IC50 (second compound 10 µM): > 3 µM
viability, T/C [31]: 103%
viability, T/C [32]: 95.6%
viability, T/C [33]: 112%
viability, T/C [34]: 122%
viability, T/C (second compound 0.1 µM, first compound 0.949 µM): 124%
viability, T/C (second compound 0.1 µM, first compound 3 µM): 96.5%
viability, T/C [35]: 96.2%
viability, T/C [36]: 92.5%
viability, T/C [37]: 97.5%
viability, T/C [38]: 107%
viability, T/C (second compound 0.316 µM, first compound 0.949 µM): 106%
viability, T/C (second compound 0.316 µM, first compound 3 µM): 83.7%
viability, T/C [39]: 94.5%
viability, T/C [40]: 102%
viability, T/C [41]: 98.7%
viability, T/C [42]: 105%
viability, T/C (second compound 1 µM, first compound 0.949 µM): 108%
viability, T/C (second compound 1 µM, first compound 3 µM): 104%
viability, T/C [43]: 111%
viability, T/C [44]: 101%
viability, T/C [45]: 102%
viability, T/C [46]: 117%
viability, T/C (second compound 3.16 µM, first compound 0.949 µM): 103%
viability, T/C (second compound 3.16 µM, first compound 3 µM): 96.2%
viability, T/C [47]: 80.4%
viability, T/C [48]: 80.2%
viability, T/C [49]: 84.4%
viability, T/C [50]: 102%
viability, T/C (second compound 10 µM, first compound 0.949 µM): 102%
viability, T/C (second compound 10 µM, first compound 3 µM): 101%
